Biological target: T1, Ubiquitin carboxyl-terminal hydrolase 28 (Homo sapiens, UniProt Q96RU2)
T1 sequence (Q96RU2 whole entry): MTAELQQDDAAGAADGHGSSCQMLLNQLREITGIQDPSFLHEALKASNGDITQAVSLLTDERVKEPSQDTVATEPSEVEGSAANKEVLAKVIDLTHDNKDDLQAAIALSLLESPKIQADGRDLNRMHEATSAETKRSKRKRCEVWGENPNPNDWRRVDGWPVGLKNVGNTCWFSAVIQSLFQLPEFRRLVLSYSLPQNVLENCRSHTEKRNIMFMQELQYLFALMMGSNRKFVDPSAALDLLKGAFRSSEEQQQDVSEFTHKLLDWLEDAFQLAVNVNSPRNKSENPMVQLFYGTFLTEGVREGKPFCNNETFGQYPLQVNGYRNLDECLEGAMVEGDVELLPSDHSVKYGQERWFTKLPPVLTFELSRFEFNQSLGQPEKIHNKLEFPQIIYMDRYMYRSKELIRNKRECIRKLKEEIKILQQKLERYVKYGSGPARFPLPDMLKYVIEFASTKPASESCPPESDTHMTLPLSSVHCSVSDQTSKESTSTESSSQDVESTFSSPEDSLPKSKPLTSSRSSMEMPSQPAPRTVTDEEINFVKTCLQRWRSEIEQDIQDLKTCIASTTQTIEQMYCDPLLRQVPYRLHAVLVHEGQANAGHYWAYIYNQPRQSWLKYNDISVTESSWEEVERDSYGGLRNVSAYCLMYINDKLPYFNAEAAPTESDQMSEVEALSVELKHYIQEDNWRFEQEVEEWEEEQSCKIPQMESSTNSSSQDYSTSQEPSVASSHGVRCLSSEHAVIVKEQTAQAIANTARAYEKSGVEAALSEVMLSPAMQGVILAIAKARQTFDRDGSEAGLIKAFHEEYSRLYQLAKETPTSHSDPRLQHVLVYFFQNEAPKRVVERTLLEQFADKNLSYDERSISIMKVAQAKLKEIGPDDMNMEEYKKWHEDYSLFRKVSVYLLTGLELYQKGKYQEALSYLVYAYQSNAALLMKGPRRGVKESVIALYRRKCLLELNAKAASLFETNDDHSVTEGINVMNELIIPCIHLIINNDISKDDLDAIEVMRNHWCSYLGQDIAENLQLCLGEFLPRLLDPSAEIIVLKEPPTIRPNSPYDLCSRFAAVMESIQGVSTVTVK
Experiment: Biochemical Assay: Ubiquitin-Rhodamine 110 Assay for USP28 Activity: Each assay was performed in a final volume of 20 μL in assay buffer containing 20 mM Tris-HCl (pH 8.0, (1M Tris-HCl, pH 8.0 solution; Corning 46-031-CM)), 2 mM CaCl2 (1M Calcium Chloride solution; Sigma #21114) 2 mM BME (2-Mercaptoethanol; Sigma 63689-25ML-F), 0.01% Prionex (0.22 μM filtered, Sigma #G-0411), and 0.01% Triton X-100. Stock compound solutions were stored at −20° C. as 10 mM in DMSO. Up to 1 month prior to the assay, 2 mM test compounds were pre-dispensed into assay plates (Black, low volume; Corning #3820) and frozen at −20° C. Prestamped assay plates were allowed to come to room temperature on the day of the assay. For the screen, 100 nL of 2 mM was pre-dispensed for a final screening concentration of 10 μM (DMSO(fc)=0.5%). […]

`Cc1cnc2c(N)c(C(=O)NCCc3ccc(N4CC5CCC(C4)N5)cc3)sc2n1` gave an IC50 of less than 200 nM.

Reference: ChEMBL document CHEMBL5729103, “Thienopyrazine carboxamides as ubiquitin-specific protease inhibitors” (2022)
